Literature values as cited in US20230340373A1, “CLEANING WIPES” (Tygrus LLC, priority 2022, published 2023).

Conditions: 25 C; cited from earlier work

In the case of `C=CCc1ccc(O)c(OC)c1` [Eugenol], the pKa is given as 10.19.
